Patent US6914056B1, “Pharmaceutical compositions comprising cyclic glycerophosphates and analogs thereof for promoting neural cell differentiation” (Yeda Research and Development Co., Ltd., priority 1999, dated 2005)
“Also recorded” adds a separate entry of the source.

Tests used:
Assay type in all cases: cell-based, rat
PC12 cells [1] = assay: Neural outgrowth of PC12 cells after three-hour pulse and wash, photographed on day 7 (Example 14, FIG. 2); conditions: for neural outgrowth (microscopic photographs): PC12 cells pulsed for three hours, washed, grown in growth medium without factor, day 7 after treatment; for promotion of neuronal outgrowth (summary statement): PC12 adrenal tumorigenic cells in culture, after a short incubation period
Method: (§1) The immortal PC12 cell line is one of the most investigated systems in neuronal differentiation. In the presence of nerve growth factor these cells differentiate to neuronal cells. PC12 cells originated from rat pheochromocytoma were grown as monolayers in Eagle's medium (EM) supplemented with 10% fetal calf serum, 50 μg/ml gentamicin and 5 mM glutamine, in a humidified incubator buffered with 5% CO2, at 37° C. The culture medium is changed every four days and the cells are passaged every eight days and performed confluent monolayers (1.5×10^6 in a 10 cm plate or 10^5 cells per well in 24 wells plate). PC12 cells are originally round cells which, following several days in the presence of nerve growth factor (NGF) process nerves. Upon withdrawal of the NGF, the nerves retract and a process of apoptosis is initiated in the cells.
Cells were grown as described above and divided into groups which were each grown with one of the following:
The above factors were added to the cells for a period of three hours after which they were washed away from the cells. […] The neural outgrowth of the cells was monitored and microscopic photographs were taken on day seven after treatment with the above factors.

PC12 cells [2] = assay: Neural outgrowth of PC12 cells after consecutive seven-day incubation (Example 15, FIG. 3); conditions: PC12 cells incubated for consecutive 7 days; CGs at 0.5 μM
Method: as §1
The cells were incubated with the various factors for a consecutive period of seven days. Neural outgrowth was monitored and microscopic photographs were taken following the seven day incubation with the above factors.

PC12 cells [3] = assay: Nerve rescue of NGF-differentiated PC12 cells after NGF withdrawal, 14-day culture (Example 19, FIG. 4)
Method: as §1
To study nerve rescue by 1,3 cPP, PC12 cells were incubated in tissue culture medium for a period of 14 days. Within this period, the cells were either grown in the presence of nerve growth factor (NGF) for different periods of times or were grown in the presence of 1,3, cPP for various periods of time. Neuronal differentiation and spread was examined in the various cells.

PC12 cells [4] = assay: Neuronal outgrowth of PC12 cells, factors in growth medium for 48 hours (Example 12, FIG. 1); conditions: 48 hours in growth medium with factor, 1,3 cGP 1 μM, NGF 50 ng/ml, α glycerophosphate as control
Method: as §1
PC12 cells were grown in culture as explained above, the cells were divided into three groups and different factors were added to the growth medium of each group for 48 hours as follows: • Group A—α glycerophosphate. • Group B—nerve growth factor (NGF) at a concentration of 50 ng/ml. • Group C —1,3 cGP at a concentration of 1 μM.
The rate of neuronal growth in each of the above cultures was monitored and documented by microscopic photographs.

Row | Molecule | neural outgrowth (microscopic photographs) (PC12 cells [1]) | neural outgrowth (microscopic photographs) (PC12 cells [2]) | rescue of the neuronal network from retraction (PC12 cells [3]; PC12 cells 7 days with NGF 50 ng/ml, then 7 days with 2 μM, 4 μM or 6 μM 1,3 cPP) | neural outgrowth (microscopic photographs) (PC12 cells [4]) | neural outgrowth (microscopic photographs) (PC12 cells [4]; listed as 1,3 GP) | promotion of neuronal outgrowth (summary statement) (PC12 cells [1]) | nerve retraction after NGF withdrawal (PC12 cells [3]; PC12 cells 7 days with NGF 50 ng/ml, then 7 days without NGF) | neuronal differentiation (PC12 cells [3]; PC12 cells grown with NGF 50 ng/ml for full 14 days)
1 | phenyl 1,3 cyclic glycerophosphate [phenyl-1,3 cGP] | Neural outgrowth is seen | neural outgrowth is observed to different extents | – | – | – | – | – | –
2 | O=P(O)(O)OC(CO)CO [βGP, β-Glycerophosphate, reference compound] | – | No neural outgrowth was observed | – | – | – | – | – | –
3 | O=P1(O)OCCCO1 [1,3 cPP, 1,3 cyclic propanediol phosphate] | Neural outgrowth is seen | neural outgrowth is observed to different extents | partial to full rescue of the neuronal network | – | – | – | – | –
4 | O=P1(O)OCC(O)CO1 (centres unmarked) [1,3 cGP, 1,3 cyclic glycerophosphate] | Neural outgrowth is seen | neural outgrowth is observed to different extents | – | neural outgrowth was clearly seen | Neuronal outgrowth is clearly seen | capable of promoting neuronal outgrowth | – | –
5 | O=P1(O)OCC(CO)O1 (centres unmarked) [1,2 cGP, 1,2 cyclic glycerophosphate] | Neural outgrowth is seen | neural outgrowth is observed to different extents | – | – | – | capable of promoting neuronal outgrowth | – | –
6 | O=P(O)(O)OCC(O)CO (stereo in doubt) [αGP, L-α-glycerophosphate, reference compound] | – | No neural outgrowth was observed | – | did not promote neural outgrowth | – | – | – | –
7 | phenyl 1,3 cyclic propanediol phosphate [phenyl-1,3 cPP] | Neural outgrowth is seen | neural outgrowth is observed to different extents | – | – | – | – | – | –
8 | NGF: nerve growth factor, a growth factor that differentiates PC12 cells to neuronal cells (protein, UniProt P01139 122-241, looked up) Beta-nerve growth factor: SSTHPVFHMGEFSVCDSVSVWVGDKTTATDIKGKEVTVLAEVNINNSVFRQYFFETKCRASNPVESGCRGIDSKHWNSYCTTTHTFVKALTTDEKQAAWRFIRIDTACVCVLSRKATRRG | did not promote any nerve generation | neural outgrowth was seen; also recorded: extensive neural outgrowth is seen | – | neural outgrowth was clearly seen; also recorded: Neuronal outgrowth is clearly seen | – | – | complete nerve retraction was observed | full neuronal differentiation
